In paper PMC5914168 (ChemMedChem, 2017):
Each block holds one molecule with its values, some of them ahead of it.

What was measured:
GAK = settings: cited from earlier work
[1] = target: STK16 kinase domain (13-305) (Homo sapiens, UniProt O75716); assay: TR-FRET ligand binding displacement assay, STK16
[2] = target: AAK1 kinase domain (31-396) (Homo sapiens, UniProt Q2M2I8); assay: TR-FRET ligand binding displacement assay, AAK1
[3] = target: BMP2K kinase domain (38-345) (Homo sapiens, UniProt Q9NSY1); assay: TR-FRET ligand binding displacement assay, BMP2K
BMP2K kinase domain (38-345), sequence (Q9NSY1 38-345): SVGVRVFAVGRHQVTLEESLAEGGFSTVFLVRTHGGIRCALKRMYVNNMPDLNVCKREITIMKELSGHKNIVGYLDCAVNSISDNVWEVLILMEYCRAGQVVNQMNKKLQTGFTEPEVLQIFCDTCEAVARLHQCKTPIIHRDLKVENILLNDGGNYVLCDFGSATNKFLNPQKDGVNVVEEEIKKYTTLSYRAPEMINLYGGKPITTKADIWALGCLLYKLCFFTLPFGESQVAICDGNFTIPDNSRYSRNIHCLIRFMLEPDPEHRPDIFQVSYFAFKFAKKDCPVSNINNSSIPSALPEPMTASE

[4] = target: T1, GAK kinase domain (12-347) (Homo sapiens, UniProt O14976); assay: TR-FRET ligand binding displacement assay, GAK
T1 sequence (O14976 12-347): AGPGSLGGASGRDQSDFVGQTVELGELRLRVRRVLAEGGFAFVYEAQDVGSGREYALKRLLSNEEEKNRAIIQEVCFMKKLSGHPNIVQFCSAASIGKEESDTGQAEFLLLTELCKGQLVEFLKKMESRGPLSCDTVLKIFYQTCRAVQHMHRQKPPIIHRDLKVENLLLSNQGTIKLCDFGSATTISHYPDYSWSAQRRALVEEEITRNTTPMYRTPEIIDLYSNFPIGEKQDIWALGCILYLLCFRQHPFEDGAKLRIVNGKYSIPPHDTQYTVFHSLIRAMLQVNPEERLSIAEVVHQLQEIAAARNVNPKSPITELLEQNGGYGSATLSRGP

[5] = target: T2, N-terminal Nano Luciferase/GAK fusion (NL-GAK) in HEK293 cells (Homo sapiens, UniProt O14976); assay: GAK nanoBRET cellular target engagement assay
T2 sequence (O14976 1-1311): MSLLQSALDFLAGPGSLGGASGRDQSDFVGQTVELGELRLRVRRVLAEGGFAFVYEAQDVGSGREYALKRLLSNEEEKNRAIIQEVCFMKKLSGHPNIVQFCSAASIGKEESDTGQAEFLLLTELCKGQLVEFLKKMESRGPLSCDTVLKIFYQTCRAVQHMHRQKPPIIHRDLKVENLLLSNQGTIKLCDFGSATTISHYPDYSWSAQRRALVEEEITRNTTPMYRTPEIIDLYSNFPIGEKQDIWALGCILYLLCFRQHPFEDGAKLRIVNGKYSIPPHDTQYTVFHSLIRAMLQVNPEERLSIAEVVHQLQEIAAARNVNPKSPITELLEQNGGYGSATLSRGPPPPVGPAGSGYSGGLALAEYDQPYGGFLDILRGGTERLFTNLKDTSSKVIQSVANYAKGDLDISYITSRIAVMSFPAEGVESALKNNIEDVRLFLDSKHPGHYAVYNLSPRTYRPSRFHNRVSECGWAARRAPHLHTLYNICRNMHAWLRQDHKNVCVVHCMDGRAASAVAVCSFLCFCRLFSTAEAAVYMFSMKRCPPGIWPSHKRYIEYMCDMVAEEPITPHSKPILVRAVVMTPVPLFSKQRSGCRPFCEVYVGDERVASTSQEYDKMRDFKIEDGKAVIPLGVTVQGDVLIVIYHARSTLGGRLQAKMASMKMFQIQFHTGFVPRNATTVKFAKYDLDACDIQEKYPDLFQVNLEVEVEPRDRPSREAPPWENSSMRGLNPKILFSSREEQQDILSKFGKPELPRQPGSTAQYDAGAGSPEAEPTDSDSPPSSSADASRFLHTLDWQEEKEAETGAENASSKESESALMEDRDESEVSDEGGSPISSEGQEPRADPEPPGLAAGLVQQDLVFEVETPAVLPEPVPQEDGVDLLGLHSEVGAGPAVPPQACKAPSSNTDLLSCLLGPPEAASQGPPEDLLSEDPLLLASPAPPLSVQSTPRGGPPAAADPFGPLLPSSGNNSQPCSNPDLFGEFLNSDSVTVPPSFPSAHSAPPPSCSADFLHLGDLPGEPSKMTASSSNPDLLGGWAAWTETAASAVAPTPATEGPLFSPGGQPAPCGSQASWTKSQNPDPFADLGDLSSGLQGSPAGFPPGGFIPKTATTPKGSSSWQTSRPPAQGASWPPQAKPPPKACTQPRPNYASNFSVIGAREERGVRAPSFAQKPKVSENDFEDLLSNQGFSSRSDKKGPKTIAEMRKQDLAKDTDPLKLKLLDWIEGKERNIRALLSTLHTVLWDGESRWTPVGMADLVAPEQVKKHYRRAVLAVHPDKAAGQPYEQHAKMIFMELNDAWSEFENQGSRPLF

[6] = test system: kinases in SUM159 cell lysate (>240 protein kinases profiled); assay: Multiplexed inhibitor beads / mass spectrometry; assay type: binding; settings: SUM159 cell lysate
[7] = target: T3, kinases in SUM159 cell lysate (>240 protein kinases profiled) (Homo sapiens, UniProt O14976); assay: Multiplexed inhibitor beads / mass spectrometry; assay type: binding; settings: SUM159 lysate, highest concentration (10 nM), 30 minutes on ice
T3 sequence (O14976 1-1311): T2 sequence (O14976 1-1311)

STK16 kinase domain (13-305), sequence (O75716 13-305): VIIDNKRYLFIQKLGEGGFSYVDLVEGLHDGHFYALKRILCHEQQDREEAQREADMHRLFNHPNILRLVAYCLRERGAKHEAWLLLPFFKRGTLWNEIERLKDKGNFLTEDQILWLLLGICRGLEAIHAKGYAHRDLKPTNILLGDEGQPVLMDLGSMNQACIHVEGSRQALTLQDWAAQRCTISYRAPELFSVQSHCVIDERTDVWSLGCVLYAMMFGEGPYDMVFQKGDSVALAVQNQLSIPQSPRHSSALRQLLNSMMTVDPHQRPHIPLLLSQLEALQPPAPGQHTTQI
AAK1 kinase domain (31-396), sequence (Q2M2I8 31-396): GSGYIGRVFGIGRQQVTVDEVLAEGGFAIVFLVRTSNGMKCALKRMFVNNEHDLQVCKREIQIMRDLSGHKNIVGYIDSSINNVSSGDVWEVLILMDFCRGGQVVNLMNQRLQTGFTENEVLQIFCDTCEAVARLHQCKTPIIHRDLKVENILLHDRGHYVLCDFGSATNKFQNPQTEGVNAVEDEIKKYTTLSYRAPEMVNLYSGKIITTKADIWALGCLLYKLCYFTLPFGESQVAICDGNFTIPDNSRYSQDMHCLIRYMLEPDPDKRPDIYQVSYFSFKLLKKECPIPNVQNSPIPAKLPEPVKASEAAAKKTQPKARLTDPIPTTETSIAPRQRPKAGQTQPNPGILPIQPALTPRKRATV

SMILES: COc1cc(Nc2c(C#N)cnc3cc(OCCCN4CCN(C)CC4)c(OC)cc23)c(Cl)cc1Cl [bosutinib]
off target activity on GAK, potency (GAK): low nanomolar range

Ki [1]: > 100 µM
Ki [2]: > 100 µM
Ki [3]: > 100 µM
Ki [4]: 0.14 µM
NAK selectivity (ratio of GAK Ki and Ki of nearest NAK family member) ([4]; selectivity against the nearest NAK family member): >720
IC50 ([5]; NanoBRET GAK IC50, HEK293 cells, 8-point dose response, average of 2 experiments): 4.4 µM
SMILES: COc1cc(Nc2ccnc3cc(F)cc(F)c23)cc(OC)c1OC [Compound 44, 5,7-Difluoro-N-(3,4,5-trimethoxyphenyl)quinolin-4-amine]

SMILES: C#Cc1cccc(Nc2ncnc3cc(OCCOC)c(OCCOC)cc23)c1 [erlotinib]
off target activity on GAK, potency (GAK): low nanomolar range

SMILES: COc1cc2nccc(Nc3cc(OC)c(OC)c(OC)c3)c2cc1OC [Compound 49, 6,7-Dimethoxy-N-(3,4,5-trimethoxyphenyl)quinolin-4-amine]
Ki [1]: > 100 µM
kinases bound in MIB/MS (kinome selectivity) [6]: binding to only GAK and RIPK2
GAK depletion in MIB/MS [7]: ~10 fold
fold cellular potency increase ([5]; nanoBRET, over the single methoxy substitutions 48 & 50): 14–17 fold

SMILES: Cc1nc(Nc2ncc(C(=O)Nc3c(C)cccc3Cl)s2)cc(N2CCN(CCO)CC2)n1 [dasatinib]
off target activity on GAK, potency (GAK): low nanomolar range

SMILES: COc1cc2ncnc(Nc3ccc(F)c(Cl)c3)c2cc1OCCCN1CCOCC1 [gefitinib]
off target activity on GAK, potency (GAK): low nanomolar range
